Measurements from patent publication US8263344B2, “Compounds regulating calreticulin, KDEL receptor and/or Erp-57 cell surface exposure and uses thereof to evaluate the efficiency of a cancer treatment” (Institut Gustave Roussy, priority 2006, dated 2012).
Peptide text beside a SMILES is read from it. * marks the point of attachment. Cbz = O=C(OCc1ccccc1)*; CH2F = FC*

Key:
CT26 tumour cells = experiment: Anti-tumour vaccination with treated (dying) CT26 cells and challenge with live tumour cells; type: in vivo, BALB/c mice; conditions: for immunogenic apoptosis / immunogenic cell death (protection against tumour growth): dying CT26 cells injected into one flank, rechallenge with live tumour cells in opposite flank 8 days later
HeLa cells = experiment: Surface ERp57 detection (immunofluorescence, flow cytometry); type: cell-based, human; conditions: MTX 1 μM, 2 h
Procedure: HeLa cells were cultured on cover slips (in RPM1160 medium supplemented with 10% fetal calf serum, L-glutamine and antibiotics), in the absence (control) or in the presence of 1 μM mitoxantrone (MTX, Sigma) for 2 h. For the intracellular stainings, HeLa cells were fixed and permeabilised by means of Cytofix/Cytoperm kit from Becton Dickinson according to the manufacturer's instructions. For the surface stainings, HeLa cells were fixed with paraformadehyde (4% w/v) on ice for 5 min. […] Nuclei were labelled with DAPI mounting medium (Vectashield). Fluorescence microscopy was analyzed with a Leica IRE2 equipped with a DC300F camera. Size bars represent 10 μm.
HeLa cells were treated with or without mitoxantrone (MTX, 1 μM) or tautomycin (Tau, 150 nM, Sigma) for 2 h. Cells were washed twice with PBS and fixed in PFA (4% w/v) for 5 min. HeLa cells were stained with an antibody against Erp57 (pAb from Abcam, ab10827) at 1:200 dilution or isotype control, in staining buffer (PBS, 1% FCS) for 30 min on ice, followed by washing. An anti-rabbit Alexa fluor 488 immunoglobulin conjugate (Molecular Probes-Invitrogen) diluted at 1:500 was added for an additional 30 min on ice before washing and analysed by flow cytometry (FACScan, Becton Dickinson). […] The CellQuest software was used to analyse the mean fluorescence intensity (MFI) and the percentage of ERp57 positive cells.
FIG. 12: ERp57 exposure depends on the activation of a caspase. • (A) HeLa cells were treated with MTX (1 μM) for 2 h in the presence or absence of 50 μM zVAD.fmk. The MFI of surface Erp57 positive cells was analysed as described in FIG. 9. • (B) HCT116 parental cells stably transfected with either a vector encoding p35 (Stennicke et al., 2002; Date et al., 2003) or with a PCMV vector (Sigma) as control, were treated with MTX (1 μM) for 2 h. The MFI of surface Erp57 positive cells was analysed as described in FIG. 9. • (C) HCT116 cells were pre-incubated in the presence of 50 μM biotinylated VAD.fmk (Calbiochem) for 2 h. […]

CT26 cells [1] = experiment: Phagocytosis of tumour cells by dendritic cells (DC); type: cell-based, BALB/c mice
Procedure: BM cells were flushed from the tibias and femurs of BALB/c mice with culture medium composed of RPMI 1640 medium (Invitrogen Life Technologies) supplemented with 10% heat-inactivated FBS (Invitrogen), sodium pyruvate, 50 μM 2-ME (Sigma), 10 mM HEPES (pH 7.4), and penicillin/streptomycin (Invitrogen). After one centrifugation, BM cells were resuspended in Tris-ammonium chloride for 2 min to lyse RBC. After one more centrifugation, BM cells (1×10^6 cells/ml) were cultured in medium supplemented with 100 ng/ml recombinant mouse FLT3 ligand (R&D systems) in 6-well plates (Costar Corning). After 7 days, the non-adherent and loosely adherent cells were harvested with Versene, washed and transferred in 12-well plates (1.5×10^6 cells/plate) for cocultures with tumour cells.
In 12-well plates, […] adherent CT26 cells were labelled with Celltracker Green (Calbiochem) and then incubated with drugs. In some experiments viable CT26 were coated with 2 μg/10^6 cells of chicken anti-CRT antibody (ABR affinity bioreagents) or an isotype control for 30 min prior to washing and feeding to dendritic cells Cs. Alternatively CT26 cells were coated with 2 μg/10^6 cells of rCRT on ice for 30 min and washed twice prior to addition to dendritic cells. Cells were then harvested, washed three times with medium supplemented with FBS and cocultured with immature DC for 2 hours at a ratio of 1:1 and 1:5. At the end of the incubation, cells were harvested with versene, pooled with non-adherent cells present in the supernatant, washed and stained with CD11c-FITC antibody. Phagocytosis was assessed by FACS analysis of double positive cells. Phagocytic indexes refer to the ratio between values obtained at 4° C. and values obtained at 37° C. of co-incubation between DC and tumour cells.

CT26 cells [2] = experiment: Fluorescence detection of cell surface CRT; type: cell-based, murine
Procedure: CT26 cells were cultured at 37° C. under 5% CO2 in RPMI 1640 medium supplemented with 10% FCS, penicillin, streptomycin, 1 mM pyruvate and 10 mM HEPES in the presence of doxorubicin (DX; 24 h, 25 μM), mitoxantrone (Mitox; 24 h, 1 μM, Sigma), idarubicin (24 h, 1 μM, Aventis, France), mitomycin C (30 μM, 48 h; Sanofi-Synthelabo, France), and/or zVAD-fmk (50 μM, 24 h; Bachem), tunicamycin (24 h, 65 μM), thapsigargin (24 h, 30 μM), brefeldin A (24 h, 50 μM, Sigma), etoposide (48 h, 25 μM, Tava classics), MG132 (48 h, 10 μM), ALLN (48 h, […]), betulinic acid (24 h, 10 μM), Hoechst 33343 (24 h, 0.2 μM), camptothecine (24 h, 15 μM), lactacystin (48 h, 60 μM), BAY 11-8072 (24 h, 30 μM), staurosporine (24 h, 1.5 μM), bafilomycin A1 (48 h, 300 nM), arsenic trioxide (24 h, 30 μM), C2-ceramide (C2-C; 24 h, 60 μM), calyculin A (48 h, 30 nM), or tautomycin (48 h, […], Sigma) and/or salubrinal (48 h, […], Calbiochem).
CT26 cells (on a glass slide or in 12-well plates) were first washed with FACS buffer (1×PBS, 5% fetus bovine serum, and 0.1% sodium azide) and then incubated with rabbit anti-mouse CRT antibody (1:100, Stressgen) in FACS buffer at 4° C. for 30 min. Cells reacted with anti-rabbit IgG (H+L) Alexa fluor 488-conjugates (1:500) in FACS buffer at 4° C. for 30 min. After washing three times with FACS buffer, surface CRT was detected by cytofluorometric analysis on a FACS Vantage. In some experiments, cells were fixed with 4% paraformaldehyde, counterstained with Hoechst (2 μM; Sigma), followed by fluorescence microscopic assessment with a Leica IRE2 microscope equipped with a DC300F camera.

CT26 tumours [3] = experiment: Single intratumoural injection into established CT26 tumours, immunocompetent mice; type: in vivo, BALB/c mice
CT26 tumours [4] = experiment: Single intratumoural injection into established CT26 tumours, athymic mice; design: species or system nu/nu Balb/c mice; conditions: mouse, in vivo
CT26 cells [5] = experiment: Biotinylation of cell surface proteins, 2D gel electrophoresis and mass spectrometry

tunicamycin
immunogenic apoptosis / immunogenic cell death (protection against tumour growth) (CT26 tumour cells): failed to induce immunogenic apoptosis

COC(=O)C[C@H](NC(=O)[C@H](C)NC(=O)[C@@H](NC(=O)OCc1ccccc1)C(C)C)C(=O)CF [Z-VAD-fmk] (Cbz-Val-Ala-Asp(OMe)-CH2F)
effect on immunogenicity of doxorubicin-elicited cell death (CT26 tumour cells; doxorubicin plus Z-VAD-fmk): reduces the immunogenicity
effect on ERp57 exposure induced by MTX (HeLa cells): abolished

CC(=O)[C@]1(O)Cc2c(O)c3c(c(O)c2[C@@H](O[C@H]2C[C@H](N)[C@H](O)[C@H](C)O2)C1)C(=O)c1ccccc1C3=O [idarubicin]
immunogenic apoptosis / immunogenic cell death (protection against tumour growth) (CT26 tumour cells): elicited immunogenic cell death

5′-rCrCrGrCUrGrGrGUrCrGrArAUrCrRrArATT-3′ [specific siRNA]
phagocytosis by DC of anthracyclin/mitoxantrone-treated tumour cells after blockade or knockdown of CRT (CT26 cells [1]): suppressed the phagocytosis

CCCCCCCCCCCCC/C=C/[C@@H](O)[C@H](CO)NC(=O)CCCCCCCCCCCCCCC [C16-ceramide]
ecto-CRT after C16-ceramide (CT26 cells [2]; 30 μM, 2 h): rapidly induces ecto-CRT

CCOc1ccc(-c2nc3ccc(-c4nc5ccc(N6CCN(C)CC6)cc5[nH]4)cc3[nH]2)cc1 [Hoechst 33342]
immunogenic apoptosis / immunogenic cell death (protection against tumour growth) (CT26 tumour cells): failed to induce immunogenic apoptosis

CO[C@@]12[C@H](COC(N)=O)C3=C(C(=O)C(C)=C(N)C3=O)N1C[C@@H]1N[C@@H]12 [mitomycin C]
CRT exposure at the cell surface (CT26 cells [2]): fail to induce ecto-CRT
therapeutic effect of intratumoural injection, single agent, immunocompetent mice (CT26 tumours [3]; mouse, in vivo): no major therapeutic effect
therapeutic effect of intratumoural injection, single agent, nu/nu mice (CT26 tumours [4]): no major therapeutic effect

C/C=C(/C)C(=O)O[C@H]1C(C)=C2[C@H]([C@@H]1OC(=O)CCCCCCC)[C@@](C)(OC(C)=O)C[C@H](OC(=O)CCC)[C@@]1(O)[C@H]2OC(=O)[C@@]1(C)O [thapsigargin]
immunogenic apoptosis / immunogenic cell death (protection against tumour growth) (CT26 tumour cells): failed to induce immunogenic apoptosis

C/C1=C/C(=O)O[C@@H]2C[C@@H](CC[C@H](C)/C=C\C=C\CC1)O[C@@](O)([C@@H]1CSC(=O)N1)C2 [latrunculin A]
effect on CRT exposure induced by anthracyclins and PP1/GADD34 inhibitors (CT26 cells [2]; pre-incubation for 1 h with the inhibitor): abolished

COC[C@@H]([C@H](O)[C@H](O)C(=O)NCC[C@H](C)c1nc(/C=C/C[C@@H]2O[C@]3(C[C@@H](O)[C@@H]2C)O[C@H]([C@H](C[C@H](O)[C@H](C)[C@H](O)[C@H](C)/C=C(C)/C(C)=C/C=C/C(C)=C\C#N)OC)[C@H](OP(=O)(O)O)C3(C)C)co1)N(C)C [calyculin A]
immunogenic cell death by PP1/GADD34 inhibition alone (CT26 tumour cells; mouse, in vivo): not sufficient to induce immunogenic cell death
CRT exposure at the cell surface (CT26 cells [2]): efficiently induced

C[C@H]1CCC/C=C/[C@@H]2C[C@H](O)C[C@H]2[C@H](O)/C=C/C(=O)O1 [brefeldin, brefeldin A]
immunogenic apoptosis / immunogenic cell death (protection against tumour growth) (CT26 tumour cells): failed to induce immunogenic apoptosis

COc1cc([C@@H]2c3cc4c(cc3[C@@H](O[C@@H]3O[C@@H]5CO[C@@H](C)O[C@H]5[C@H](O)[C@H]3O)[C@H]3COC(=O)[C@H]23)OCO4)cc(OC)c1O [etoposide]
immunogenic apoptosis / immunogenic cell death (protection against tumour growth) (CT26 tumour cells): failed to induce immunogenic apoptosis
immunogenicity of sham-coated cells treated with etoposide (CT26 tumour cells; mouse, in vivo): poorly immunogenic
CRT exposure at the cell surface (CT26 cells [2]): fail to induce ecto-CRT
therapeutic effect of intratumoural injection, single agent, immunocompetent mice (CT26 tumours [3]; mouse, in vivo): no major therapeutic effect
therapeutic effect of intratumoural injection, single agent, nu/nu mice (CT26 tumours [4]): no major therapeutic effect

CO[C@H]([C@H](O)CC(=O)[C@@H](C)[C@@H](O)CC[C@@H](C)[C@@H]1O[C@]2(CC[C@@H](C)[C@H](CC[C@H](C)C(C)=O)O2)CC[C@@H]1C)[C@H](OC(=O)C[C@@H](O)C1=C(C)C(=O)OC1=O)C(C)C [tautomycin]
immunogenic cell death by PP1/GADD34 inhibition alone (CT26 tumour cells; mouse, in vivo): not sufficient to induce immunogenic cell death
CRT exposure at the cell surface (CT26 cells [2]): efficiently induced
therapeutic effect of intratumoural injection, single agent, immunocompetent mice (CT26 tumours [3]; established 14-day-old CT26 tumours): no major therapeutic effect
therapeutic effect combined with a cell death inducer (etoposide or mitomycin C), immunocompetent mice (CT26 tumours [3]; intratumoural): stable disease or complete tumour regression
therapeutic effect of intratumoural injection, single agent, nu/nu mice (CT26 tumours [4]): no major therapeutic effect
surface exposure of ERp57 (HeLa cells; Tau 150 nM): stimulates the surface exposure

COc1cccc2c1C(=O)c1c(O)c3c(c(O)c1C2=O)C[C@@](O)(C(=O)CO)C[C@@H]3O[C@H]1C[C@H](N)[C@H](O)[C@H](C)O1 [doxorubicin]
immunogenic apoptosis / immunogenic cell death (protection against tumour growth) (CT26 tumour cells): elicited immunogenic cell death
phagocytosis of treated tumour cells by DC (CT26 cells [1]; within a few hours after treatment): acquired the property to be phagocytosed by DC
induction of surface CRT (factor), combined with Z-VAD-fmk (CT26 cells [5]; 4 h, doxorubicin plus Z-VAD-fmk): 1.8
ERP57 surface exposure (CT26 cells [5]; 4 h treatment, 2D electrophoreses): specifically induced
induction of surface CRT (factor) (CT26 cells [5]; short-term (4 h) treatment, biotinylated surface proteins, 2D electrophoreses): 6

CC[C@@]1(O)C(=O)OCc2c1cc1n(c2=O)Cc2cc3ccccc3nc2-1 [camptothecin]
immunogenic apoptosis / immunogenic cell death (protection against tumour growth) (CT26 tumour cells): failed to induce immunogenic apoptosis

CCCCCCCCCCCCC/C=C/[C@@H](O)[C@H](CO)NC(C)=O [C2 ceramide, C2-ceramide]
immunogenic apoptosis / immunogenic cell death (protection against tumour growth) (CT26 tumour cells): failed to induce immunogenic apoptosis
